This note sets out measurements from US5683999A, “Cyclic urea HIV protease inhibitors” (The DuPont Merck Pharmaceutical Company, priority 1996, dated 1997).

In brackets after ≈: the same amount, converted by molar mass.

For the test, the system named is HIV-1 (RF). The test is described as follows: HIV RNA Assay (HIV-1 infected MT-2 cells). The test is classed as cell-based. The settings on record: Human immunodeficiency virus 1, MT2, 72 h; HIV-1 (RF) infected MT-2 cells, 3 days of culture; read-out: IC90 value (concentration of compound required to reduce the HIV RNA level by 90%). The method, then: DNA Plasmids and in vitro RNA transcripts
Plasmid pDAB 72 containing both gag and pol sequences of BH10 (bp 113-1816) cloned into PTZ 19R was prepared according to Erickson-Viitanen et al., AIDS Research and Human Retroviruses (1989) 5:577. The plasmid was linearized with Bam HI prior to the generation of in vitro RNA transcripts using the Riboprobe Gemini system II kit (Promega) with T7 RNA polymerase. Synthesized RNA was purified by treatment with RNase free DNAse (Promega), phenol-chloroform extraction, and ethanol precipitation. RNA transcripts were dissolved in water, and stored a -70° C. The concentration of RNA was determined from the A260.
Biotinylated capture probes were purified by HPLC after synthesis on an Applied Biosystems (Foster City, Calif.) DNA synthesizer by addition of biotin to the 5' terminal end of the oligonucleotide, using the biotin-phosphoramidite reagent of Cocuzza, Tet. Lett. (1989) 30:6287. […]
MT-2, CEM, and H9 cells were maintained in RPMI 1640 supplemented with 5% fetal calf serum (FCS), 2 mM L-glutamine and 50 μg/mL gentamycin, all from Gibco. […] Infectious titers of HIV-1(RF) stocks were 1-3×10^7 PFU (plaque forming units)/mL as measured by plaque assay on MT-2 cells (see below). […]

Consider `Nc1ccn([C@H]2CC[C@@H](CO)O2)c(=O)n1` [ddC, 2',3'-dideoxycytidine], for which the IC90 is 0.2 µg/mL (≈ 0.947 µM).
